Common to all, as to assay: Antibacterial assay, microtitration MIC (Test A)
Holding throughout (format): cell-based

One test deals with S pyogenes C203. As to conditions: Gram Positive Bacteria; strain C203; read-out: Minimum Inhibitory Concentrations S pyogenes C203. Summed up: (§1)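 Read-out is the MIC, obtained through conventional microtitration testing of Gram-positive and Gram-negative organisms.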
For another test, the system named is S. aureus UC-76. The settings on record: Staphylococcus aureus, UC76, Gram Positive Bacteria; strain UC-76; read-out: Minimum Inhibitory Concentrations S. aureus UC-76. The gist of the method:
as §1

A further test concerns E. faecalis MGH-2. As to conditions: Enterococcus faecalis, MGH2, Gram Positive Bacteria; strain MGH-2; read-out: Minimum Inhibitory Concentrations E. faecalis MGH-2. Summed up: as §1
Another test has as its system S. pneumo SV-1. As to conditions: Gram Positive Bacteria; strain SV-1; read-out: Minimum Inhibitory Concentrations S. pneumo SV-1. Summed up: as §1
The test system of another test is E. coli EC-2549. The settings on record: Escherichia coli, EC2549, Gram Negative Bacteria; strain EC-2549; read-out: Minimum Inhibitory Concentrations E. coli EC-2549. The gist of the method: as §1
The test system of a further test is M. catarrhalis BC-3531. The settings on record: Moraxella catarrhalis, BC3531, Gram Negative Bacteria; strain BC-3531; read-out: Minimum Inhibitory Concentrations M. catarrhalis BC-3531. The gist of the method:
as §1

Another test relates to H. influenzae HI-3542. The settings on record: Haemophilus influenzae, HI3542, Gram Negative Bacteria; strain HI-3542; read-out: Minimum Inhibitory Concentrations H. influenzae HI-3542. Summed up:
as §1

Values after ≈ are worked out from the molar mass of the structure shown.

With `COc1c(N2CC3CC(O)C(O)C3C2)c(F)cc2c(=O)c(C(=O)O)cn(C3CC3)c12` (centres unmarked), the MIC in the test with S pyogenes C203 turned out to be 0.25 µg/mL (≈ 0.597 µM); in the test with S. aureus UC-76 it was 0.008 µg/mL (≈ 0.0191 µM); with E. faecalis MGH-2, 0.25 µg/mL (≈ 0.597 µM); in the test on S. pneumo SV-1, 0.25 µg/mL (≈ 0.597 µM).
With `COc1c(N2CCC(C(O)CO)C2)c(F)cc2c(=O)c(C(=O)O)cn(C3CC3)c12` (centres unmarked) [drawing 355], the MIC with S pyogenes C203 is 0.03 µg/mL (≈ 0.0738 µM); with S. aureus UC-76 it was 0.002 µg/mL (≈ 0.00492 µM); with E. faecalis MGH-2 it was 0.03 µg/mL (≈ 0.0738 µM); in the test on S. pneumo SV-1, 0.03 µg/mL (≈ 0.0738 µM).
As for `CCCOC[C@@H]1CN(c2c(F)cc3c(=O)c(C(=O)O)cn(C4CC4)c3c2C)C[C@@H]1CO` [drawing 410], the MIC with S pyogenes C203 stood at 0.125 µg/mL (≈ 0.289 µM); in the test with S. aureus UC-76 it was 0.004 µg/mL (≈ 0.00925 µM); with E. faecalis MGH-2 it was 0.125 µg/mL (≈ 0.289 µM); in the test with S. pneumo SV-1 it was 0.06 µg/mL (≈ 0.139 µM).
In the case of `Cc1c(N2C[C@@H]3CC[C@@H](O)[C@@H]3C2)c(F)cc2c(=O)c(C(=O)O)cn(C3CC3)c12` [drawing 453], the MIC with S pyogenes C203 was 0.06 µg/mL (≈ 0.155 µM); with S. aureus UC-76, 0.004 µg/mL (≈ 0.0104 µM); with E. faecalis MGH-2, 0.06 µg/mL (≈ 0.155 µM); in the test with S. pneumo SV-1, 0.03 µg/mL (≈ 0.0776 µM).
For the molecule `Cc1c(N2C[C@@H]3CC[C@@](O)(CO)[C@@H]3C2)c(F)cc2c(=O)c(C(=O)O)cn(C3CC3)c12` [drawing 461], the MIC with S pyogenes C203 is 0.25 µg/mL (≈ 0.6 µM); in the test with S. aureus UC-76 it was 0.008 µg/mL (≈ 0.0192 µM); in the test on E. faecalis MGH-2 it was 0.125 µg/mL (≈ 0.3 µM); in the test on S. pneumo SV-1 it was 0.06 µg/mL (≈ 0.144 µM).
For `COc1c(N2CCC(C(CO)CO)C2)c(F)cc2c(=O)c(C(=O)O)cn(C3CC3)c12` (centres unmarked) [drawing 340], in that order: 0.06 µg/mL (≈ 0.143 µM), 0.004 µg/mL (≈ 0.00951 µM), 0.03 µg/mL (≈ 0.0714 µM) and 0.03 µg/mL (≈ 0.0714 µM).
As to `CCOC[C@@H]1CN(c2c(F)cc3c(=O)c(C(=O)O)cn(C4CC4)c3c2C)C[C@@H]1CO` [drawing 409], the MIC in the test with S pyogenes C203 is 0.125 µg/mL (≈ 0.299 µM); in the test with S. aureus UC-76 it was 0.004 µg/mL (≈ 0.00956 µM); in the test with E. faecalis MGH-2, 0.125 µg/mL (≈ 0.299 µM); in the test on S. pneumo SV-1, 0.06 µg/mL (≈ 0.143 µM).
Consider `O=C(O)c1cn(C2CC2)c2c(OC(F)F)c(N3C[C@@H](CCO)[C@@H](CCO)C3)c(F)cc2c1=O` [drawing 416], for which the MIC came out at 0.125 µg/mL (≈ 0.266 µM) in the test on S pyogenes C203, 0.008 µg/mL (≈ 0.017 µM) in the test on S. aureus UC-76, 0.125 µg/mL (≈ 0.266 µM) with E. faecalis MGH-2 and 0.125 µg/mL (≈ 0.266 µM) in the test on S. pneumo SV-1.
`CC(=O)OC[C@@H]1CN(c2c(F)cc3c(=O)c(C(=O)O)cn(C4CC4)c3c2C)C[C@@H]1COC(C)=O` [drawing 411]: the MIC with S pyogenes C203 amounted to 0.125 µg/mL (≈ 0.263 µM); in the test with S. aureus UC-76, 0.015 µg/mL (≈ 0.0316 µM); in the test on E. faecalis MGH-2, 0.125 µg/mL (≈ 0.263 µM); in the test with S. pneumo SV-1, 0.06 µg/mL (≈ 0.126 µM).
As to `Cc1c(N2C[C@@H](CCO)[C@@H](CCO)C2)c(F)cc2c(=O)c(C(=O)O)cn(C3CC3)c12` [drawing 414], the MIC worked out at 0.03 µg/mL (≈ 0.0717 µM) in the test on S pyogenes C203, 0.002 µg/mL (≈ 0.00478 µM) in the test with S. aureus UC-76, 0.06 µg/mL (≈ 0.143 µM) with E. faecalis MGH-2 and 0.03 µg/mL (≈ 0.0717 µM) in the test on S. pneumo SV-1.
Regarding `Nc1nc(-n2cc(C(=O)O)c(=O)c3cc(F)c(N4C[C@@H](CO)[C@@H](CO)C4)c(Cl)c32)c(F)cc1F` [drawing 402], the MIC in the test with S pyogenes C203 was determined as 0.5 µg/mL (≈ 1 µM); in the test on S. aureus UC-76 it was 0.125 µg/mL (≈ 0.251 µM); in the test on E. faecalis MGH-2 it was 2 µg/mL (≈ 4.01 µM); in the test on S. pneumo SV-1 it was 0.5 µg/mL (≈ 1 µM).
Regarding `CCC(=O)OC[C@@H]1CN(c2c(F)cc3c(=O)c(C(=O)O)cn(C4CC4)c3c2C)C[C@@H]1COC(=O)CC` [drawing 393], the MIC in the test with E. coli EC-2549 stood at 1 µg/mL (≈ 1.99 µM); in the test on M. catarrhalis BC-3531 it was 0.03 µg/mL (≈ 0.0597 µM); in the test on H. influenzae HI-3542 it was 0.5 µg/mL (≈ 0.995 µM).
For `Cc1c(N2C[C@@H](COC(=O)C(C)C)[C@@H](COC(=O)C(C)C)C2)c(F)cc2c(=O)c(C(=O)O)cn(C3CC3)c12` [drawing 394], in that order: 8 µg/mL (≈ 15.1 µM), 2 µg/mL (≈ 3.77 µM) and 2 µg/mL (≈ 3.77 µM).
For `Nc1nc(-n2cc(C(=O)O)c(=O)c3cc(F)c(N4C[C@@H](CO)[C@@H](CO)C4)c(Cl)c32)c(F)cc1F` [drawing 383], in that order: 0.5 µg/mL (≈ 1 µM), 0.25 µg/mL (≈ 0.501 µM) and 0.008 µg/mL (≈ 0.016 µM).
The corresponding values for `O=C(O)c1cn(C2CC2)c2c(Cl)c(N3CCC(C(O)C4(CO)CC4)C3)c(F)cc2c1=O` (centres unmarked) [drawing 321] are 0.06 µg/mL (≈ 0.133 µM), 0.016 µg/mL (≈ 0.0355 µM) and 0.008 µg/mL (≈ 0.0177 µM).
